From patent publication US20100267637A1, “TREATMENT OF MELANOMA WITH ALPHA THYMOSIN PEPTIDES IN COMBINATION WITH A KINASE INHIBITOR” (SciClone Pharmaceuticals, Inc., priority 2007, published 2010)
Where no end group is shown, it is not given here.

Test system: murine B16 melanoma cells
Test: Anti-tumor effect: tumor weight at necropsy (Day 16) in mice bearing subcutaneous B16 melanoma
Assay type: in vivo, C57BL/6 mice
Conditions: for Tumor Weight (g) (Mean ± SD): group mean
Experimental: The toxic effects of the dosing regimens were also monitored. […] Meanwhile 9H10 was given in two groups via i.p. on Day 3, 6 and 9. […] Tumor volume and body weight were measured every three days, and tumor weights were measured on Day 16 at the end of the study.
On the day of tumor implantation, approximately 1×10^6 cells in 0.1 mL were subcutaneously injected on the right axillary area of each mouse. The day of tumor implantation was defined as Day 0.
On Day 3, the animals were randomly assigned into nine different weight-matched and tumor-size-matched groups. Dosing was started on Day 3 using the regimen according to Table 2.
From Day 1 to Day 15, mortality and moribundity were checked twice daily, the body weights were recorded once every 3 days, and tumors were measured using a caliper once every 3 days. At the end of the study (Day 16), the animals were euthanized by CO2 asphyxiation, and the tumors were excised and weighed.
The anti-tumor effect of the test article was further evaluated with tumor weight (TW) measured on day of necropsy (Day 16). The PI of TW was calculated using the equation below:
PITW(%)=100×(TW vehicle−TW drug treated)/TW vehicle
Inter-group comparison was performed in terms of tumor volume, tumor weight and body weight, using a student's t test. P values of less than 0.05 were considered to be statistically significant.

Compound: CN(C)/N=N/c1[nH]cnc1C(N)=O [DTIC, Dacarbazine]
- Tumor weight on Day 16 (animal F1): 1.40 g
- Tumor weight on Day 16 (animal F2): 0.43 g
- Tumor weight on Day 16 (animal F3): 0.47 g
- Tumor weight on Day 16 (animal F4): 0.68 g
- Tumor weight on Day 16 (animal F5): 0.56 g
- Tumor weight on Day 16 (animal M1): 1.80 g
- Tumor weight on Day 16 (animal M2): 1.80 g
- Tumor weight on Day 16 (animal M3): 0.83 g
- Tumor weight on Day 16 (animal M4): 2.30 g
- Tumor weight on Day 16 (animal M5): 1.90 g
- Tumor Weight (g) (Mean ± SD): 1.22 ± 0.699 g
- percent inhibition of tumor weight vs vehicle: 28.41%

Compound: CNC(=O)c1cc(Oc2ccc(NC(=O)Nc3ccc(Cl)c(C(F)(F)F)c3)cc2)ccn1 [Sorafenib]
- Tumor weight on Day 16 (animal F1): 0.23 g
- Tumor weight on Day 16 (animal F2): 0.16 g
- Tumor weight on Day 16 (animal F3): 0.32 g
- Tumor weight on Day 16 (animal F4): 0.30 g
- Tumor weight on Day 16 (animal F5): 0.16 g
- Tumor weight on Day 16 (animal M1): 0.10 g
- Tumor weight on Day 16 (animal M2): 0.38 g
- Tumor weight on Day 16 (animal M3): 0.20 g
- Tumor weight on Day 16 (animal M4): 0.25 g
- Tumor weight on Day 16 (animal M5): 0.32 g
- Tumor Weight (g) (Mean ± SD): 0.24 ± 0.088 g
- percent inhibition of tumor weight vs vehicle: 85.76%

Compound: Thymosin Alpha-1 (Ac-SDAAVDTSSEITTKDLKEKKEVVEEAEN; ends and bridges not checked; UniProt P06454 2-29, looked up) [TA-1, 28 amino acid peptide, immunomodulator; test article (SciClone), 6 mg/kg s.c. daily]
- Tumor weight on Day 16 (animal F1): 0.63 g
- Tumor weight on Day 16 (animal F2): 0.44 g
- Tumor weight on Day 16 (animal F3): 0.45 g
- Tumor weight on Day 16 (animal F4): 0.75 g
- Tumor weight on Day 16 (animal F5): 0.08 g
- Tumor weight on Day 16 (animal M1): 0.73 g
- Tumor weight on Day 16 (animal M2): 1.30 g
- Tumor weight on Day 16 (animal M3): 2.00 g
- Tumor weight on Day 16 (animal M4): 2.20 g
- Tumor weight on Day 16 (animal M5): 1.05 g
- Tumor Weight (g) (Mean ± SD): 0.96 ± 0.688 g
- percent inhibition of tumor weight vs vehicle: 43.35%
